Laboratory results as given in US20220055989A1, “CONDENSED PYRROLES AS NOVEL BROMODOMAIN INHIBITORS” (ALBERT LUDWING UNIVERSITÄT FREIBURG, priority 2018, published 2022).

Legend:
[1] = molecular target: T1, WDR9(2) (Homo sapiens, UniProt Q9NSI6); experiment: Bromodomain assay % Ctrl determination WDR9(2); conditions: lower numbers indicate a stronger binding
T1 construct: T7 phage strains displaying bromodomains were grown in parallel; host or cells: T7 phage grown in E. coli host derived from BL21
Procedure: (§1) Compounds that bind the bromodomain prevent its binding to the immobilized ligand thus reducing the amount of protein captured. […] Hits are identified by measuring the amount of bromodomain captured in test versus control samples. Bromodomain assays for % Ctrl determination: T7 phage strains displaying bromodomains were grown in parallel in 24-well blocks in an E. coli host derived from the BL21 strain. E. coli were grown to log-phase and infected with T7 phage from a frozen stock (multiplicity of infection=0.4) and incubated with shaking at 32° C. until lysis (90-150 minutes). The lysates were centrifuged (5,000×g) and filtered (0.2 μm) to remove cell debris. […] The liganded beads were blocked with excess biotin and washed with blocking buffer (SeaBlock (Pierce), 1% BSA, 0.05% Tween 20, 1 mM DTT) to remove unbound ligand and to reduce non-specific phage binding. […] Test compounds were prepared as 1000× stocks in 100% DMSO and subsequently diluted 1:25 in monoethylene glycol (MEG). The compounds were then diluted directly into the assays such that the final concentrations of DMSO and MEG were 0.1% and 2.4%, respectively. All reactions were performed in polypropylene 384-well plates in a final volume of 0.02 ml. […] The bromodomain concentration in the eluates was measured by qPCR. […]

[2] = molecular target: T2, SMARCA2 (Homo sapiens, UniProt P51531); experiment: Bromodomain assay % Ctrl determination SMARCA2; conditions: lower numbers indicate a stronger binding
T2 construct: T7 phage strains displaying bromodomains were grown in parallel; host or cells: T7 phage grown in E. coli host derived from BL21
Procedure: as §1

[3] = molecular target: T3, BRD3(2) (Homo sapiens, UniProt Q15059); experiment: Bromodomain assay % Ctrl determination BRD3(2); conditions: lower numbers indicate a stronger binding
T3 construct: T7 phage strains displaying bromodomains were grown in parallel; made in house; host or cells: T7 phage grown in an E. coli host derived from the BL21 strain
Procedure: as §1

[4] = molecular target: T4, BRD3(1) (Homo sapiens, UniProt Q15059); experiment: Bromodomain assay % Ctrl determination BRD3(1); conditions: lower numbers indicate a stronger binding
T4 construct: T7 phage strains displaying bromodomains were grown in parallel; made in house; host or cells: T7 phage grown in an E. coli host derived from the BL21 strain
Procedure: as §1

[5] = molecular target: T5, BRD4(2) (Homo sapiens, UniProt O60885); experiment: Bromodomain assay % Ctrl determination BRD4(2); conditions: lower numbers indicate a stronger binding
T5 construct: T7 phage strains displaying bromodomains were grown; host or cells: T7 phage in E. coli derived from BL21
Procedure: as §1

[6] = molecular target: T6, GCN5L2 (Homo sapiens, UniProt Q92830); experiment: Bromodomain assay % Ctrl determination GCN5L2; conditions: lower numbers indicate a stronger binding
T6 construct: T7 phage strains displaying bromodomains were grown in parallel; host or cells: T7 phage grown in E. coli host derived from BL21
Procedure: as §1

[7] = molecular target: T7, PCAF (Homo sapiens, UniProt Q92831); experiment: Bromodomain assay % Ctrl determination PCAF; conditions: lower numbers indicate a stronger binding
T7 construct: T7 phage strains displaying bromodomains were grown in parallel; host or cells: T7 phage grown in E. coli host derived from BL21
Procedure: as §1

[8] = test system: TRIM33(PHD, Bromo); experiment: Bromodomain assay % Ctrl determination TRIM33(PHD, Bromo); conditions: lower numbers indicate a stronger binding
Procedure: as §1

[9] = molecular target: T8, EP300 (Homo sapiens, UniProt Q09472); experiment: Bromodomain assay % Ctrl determination EP300; conditions: lower numbers indicate a stronger binding
T8 construct: T7 phage strains displaying bromodomains were grown; host or cells: T7 phage in E. coli derived from BL21
T8 sequence (Q09472 1049-1156 limits assumed): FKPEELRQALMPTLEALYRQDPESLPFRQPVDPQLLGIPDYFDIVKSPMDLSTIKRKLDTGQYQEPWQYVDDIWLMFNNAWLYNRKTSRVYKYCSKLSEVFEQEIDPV
Procedure: as §1

[10] = molecular target: T9, BRD2(1) (Homo sapiens, UniProt P25440); experiment: Bromodomain assay % Ctrl determination BRD2(1); conditions: lower numbers indicate a stronger binding
T9 construct: T7 phage strains displaying bromodomains were grown in parallel; made in house; host or cells: T7 phage grown in an E. coli host derived from the BL21 strain
Procedure: as §1

[11] = molecular target: T10, FALZ (Homo sapiens, UniProt Q12830); experiment: Bromodomain assay % Ctrl determination FALZ; conditions: lower numbers indicate a stronger binding
T10 construct: T7 phage strains displaying bromodomains were grown in parallel; host or cells: T7 phage grown in E. coli host derived from BL21
Procedure: as §1

[12] = molecular target: T11, BAZ2A (Homo sapiens, UniProt Q9UIF9); experiment: BROMOscan Kd determination BAZ2A; type: binding
T11 construct: T7 phage strains displaying bromodomains were grown in parallel; made in house; host or cells: T7 phage grown in an E. coli host derived from the BL21 strain
Procedure: (§2) Bromodomain profiling was carried out on the basis of BROMOscan™. This platform accounted for the indirect determination of the dissociation constants between 19 bromodomains and the compound of formula (13), by binding competition against a reference immobilized ligand. Compounds that bind the bromodomain prevent its binding to the immobilized ligand thus reducing the amount of protein captured. […] Hits are identified by measuring the amount of bromodomain captured in test versus control samples. Bromodomain assays for Kd determination: T7 phage strains displaying bromodomains were grown in parallel in 24-well blocks in an E. coli host derived from the BL21 strain. E. coli were grown to log-phase and infected with T7 phage from a frozen stock (multiplicity of infection=0.4) and incubated with shaking at 32° C. until lysis (90-150 minutes). The lysates were centrifuged (5,000×g) and filtered (0.2 μm) to remove cell debris. […] Kds were determined using an 11-point 3-fold compound dilution series with one DMSO control point. […] The bromodomain concentration in the eluates was measured by qPCR. […] Most Kds were determined using a compound top concentration=10,000 nM. […] Binding Constants (Kds): Binding constants (Kds) were calculated with a standard dose-response curve using the Hill equation: The Hill Slope was set to −1. […]

[13] = molecular target: T12, ATAD2A (Homo sapiens, UniProt Q6PL18); experiment: BROMOscan Kd determination ATAD2A; type: binding
T12 construct: T7 phage strains displaying bromodomains were grown in parallel; made in house; host or cells: T7 phage grown in an E. coli host derived from the BL21 strain
Procedure: as §2

[14] = molecular target: T13, ATAD2B (Homo sapiens, UniProt Q9ULI0); experiment: BROMOscan Kd determination ATAD2B; type: binding
T13 construct: T7 phage strains displaying bromodomains were grown in parallel; made in house; host or cells: T7 phage grown in an E. coli host derived from the BL21 strain
Procedure: as §2

[15] = molecular target: T7, PCAF; experiment: BROMOscan Kd determination PCAF; type: binding
Procedure: as §2

[16] = molecular target: T10, FALZ; experiment: BROMOscan Kd determination FALZ; type: binding
Procedure: as §2

[17] = molecular target: T14, BRPF3 (Homo sapiens, UniProt Q9ULD4); experiment: BROMOscan Kd determination BRPF3; type: binding
T14 construct: T7 phage strains displaying bromodomains were grown; host or cells: T7 phage in E. coli derived from BL21
Procedure: as §2

[18] = molecular target: T15, BRD3(1, 2) (Homo sapiens, UniProt Q15059); experiment: BROMOscan Kd determination BRD3(1, 2); type: binding
T15 construct: T7 phage strains displaying bromodomains were grown in parallel; made in house; host or cells: T7 phage grown in an E. coli host derived from the BL21 strain
Procedure: as §2

T7 sequence (Q92831 723-827 limits assumed): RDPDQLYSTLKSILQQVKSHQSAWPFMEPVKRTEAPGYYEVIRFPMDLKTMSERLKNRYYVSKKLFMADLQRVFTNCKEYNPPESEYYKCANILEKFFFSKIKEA
T12 sequence (Q6PL18 980-1092 limits assumed): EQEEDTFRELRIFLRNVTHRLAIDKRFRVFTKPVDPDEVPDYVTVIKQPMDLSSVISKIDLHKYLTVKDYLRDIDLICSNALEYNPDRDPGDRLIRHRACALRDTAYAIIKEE
T9 sequence (P25440 74-180 limits assumed): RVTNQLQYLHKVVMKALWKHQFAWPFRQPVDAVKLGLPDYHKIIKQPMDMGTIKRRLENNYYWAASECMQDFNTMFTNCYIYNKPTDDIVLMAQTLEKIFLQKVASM
T11 sequence (Q9UIF9 1793-1897 limits assumed): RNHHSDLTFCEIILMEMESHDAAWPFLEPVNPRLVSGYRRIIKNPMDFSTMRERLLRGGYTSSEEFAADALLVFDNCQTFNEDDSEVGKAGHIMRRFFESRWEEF
T14 sequence (Q9ULD4 589-693 limits assumed): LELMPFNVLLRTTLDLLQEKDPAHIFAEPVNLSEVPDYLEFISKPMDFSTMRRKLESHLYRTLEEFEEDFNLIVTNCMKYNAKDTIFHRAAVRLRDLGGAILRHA
T1 sequence (Q9NSI6 1313-1418 limits assumed): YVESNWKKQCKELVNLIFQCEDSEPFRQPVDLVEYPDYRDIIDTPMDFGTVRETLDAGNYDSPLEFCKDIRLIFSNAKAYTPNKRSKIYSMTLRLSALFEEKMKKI
T15 sequence (Q15059 24-416 limits assumed): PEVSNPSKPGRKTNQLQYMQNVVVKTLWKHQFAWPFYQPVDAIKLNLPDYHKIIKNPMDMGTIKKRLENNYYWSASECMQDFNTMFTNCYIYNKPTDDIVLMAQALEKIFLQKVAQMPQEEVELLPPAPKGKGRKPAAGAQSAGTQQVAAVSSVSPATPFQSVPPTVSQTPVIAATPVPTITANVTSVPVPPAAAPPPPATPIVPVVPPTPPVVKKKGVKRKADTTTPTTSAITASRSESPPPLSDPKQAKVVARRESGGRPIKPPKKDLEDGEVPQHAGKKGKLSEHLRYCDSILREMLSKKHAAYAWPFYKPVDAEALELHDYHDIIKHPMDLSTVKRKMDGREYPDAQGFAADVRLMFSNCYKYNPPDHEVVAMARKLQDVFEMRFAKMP
T13 sequence (Q9ULI0 951-1066 limits assumed): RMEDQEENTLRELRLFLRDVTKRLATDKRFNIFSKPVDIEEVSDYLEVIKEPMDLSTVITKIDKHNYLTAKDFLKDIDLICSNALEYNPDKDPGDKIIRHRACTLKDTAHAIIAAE
T3 sequence (Q15059 306-415 limits assumed): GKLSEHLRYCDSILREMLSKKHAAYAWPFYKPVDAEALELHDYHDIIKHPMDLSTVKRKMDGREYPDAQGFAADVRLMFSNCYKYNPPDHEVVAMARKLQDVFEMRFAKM
T6 sequence (Q92830 728-832 limits assumed): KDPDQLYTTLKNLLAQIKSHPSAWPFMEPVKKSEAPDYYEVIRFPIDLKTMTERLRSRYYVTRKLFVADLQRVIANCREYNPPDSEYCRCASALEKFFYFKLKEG
T2 sequence (P51531 1378-1506 limits assumed): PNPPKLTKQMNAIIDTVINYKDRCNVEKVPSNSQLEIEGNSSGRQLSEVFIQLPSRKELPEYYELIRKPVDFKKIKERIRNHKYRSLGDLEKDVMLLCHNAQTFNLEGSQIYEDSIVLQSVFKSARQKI
T4 sequence (Q15059 34-140 limits assumed): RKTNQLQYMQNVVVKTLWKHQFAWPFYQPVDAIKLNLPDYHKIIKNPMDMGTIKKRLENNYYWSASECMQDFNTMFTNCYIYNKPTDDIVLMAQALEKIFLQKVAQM

Row | SMILES | % Ctrl @ 10 000 nM WDR9(2) [1] [% Ctrl] | % Ctrl @ 10 000 nM SMARCA2 [2] [% Ctrl] | % Ctrl @ 10 000 nM BRD3(2) [3] [% Ctrl] | % Ctrl @ 10 000 nM BRD3(1) [4] [% Ctrl] | % Ctrl @ 10 000 nM BRD4(2) [5] [% Ctrl] | % Ctrl @ 10 000 nM GCN5L2 [6] [% Ctrl] | % Ctrl @ 10 000 nM PCAF [7] [% Ctrl] | % Ctrl @ 10 000 nM TRIM33(PHD, Bromo) [8] [% Ctrl] | % Ctrl @ 10 000 nM EP300 [9] [% Ctrl] | % Ctrl @ 10 000 nM BRD2(1) [10] [% Ctrl] | % Ctrl @ 10 000 nM FALZ [11] [% Ctrl] | Kd [12] [nM] | Kd [13] [nM] | Kd [14] [nM] | Kd [15] [nM] | Kd [16] [nM] | Kd [17] [nM] | Kd [18] [nM]
1 | COc1ccc(S(=O)(=O)N2CCOCC2)cc1NC(=O)c1[nH]c(C)c2c1CCCCC2=O [Compound 13, N-(2-methoxy-5-(morpholinosulfonyl)phenyl)-3-methyl-4-oxo-2,4,5,6,7,8-hexahydrocyclohepta[c]pyrrole-1-carboxamide] | 81 | 83 | 0 | 0.05 | 0 | 44 | 20 | 60 | 1.4 | 0 | 6.8 | – | – | – | – | – | – | –
2 | Cc1[nH]c(-c2cc(N)ccc2Cl)c2c1C(=O)CCCC2 [Compound 23] | – | – | – | – | – | – | – | – | – | – | – | 1900 | > 10000 | > 10000 | > 10000 | 2600 | 6000 | 100
